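Step 1: Grow cells in 96-well plates. Step 2: Expose to compound for 48 hours at 5 concentrations. Step 3: Interpolate endpoints linearly; if unreached, use highest concentration. At the TGI there is no net growth.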 Some results are limits rather than exact numbers.

Some test systems named below: A498 renal; A549 NSCLC; ACHN renal; CAKI-1 renal; COLO 205 colon; DU-145 prostate; HCT-116 colon; HL-60(TB) leukemia; HOP-62 NSCLC; HS 578T breast; K-562 leukemia; LOX IMVI melanoma; MOLT-4 leukemia; NCI-H226 lung; NCI-H23 lung; NCI-H522 lung; SF-268 CNS; SF-295 CNS; SR leukemia; TK-10 renal.
What all share (test): NCI tumour cell line growth inhibition, 48 h

As for `S=C1Cc2c(-c3ccc(Cl)cc3)cc(-c3ccccc3)nc2-c2ccccc2N1`, the TGI was 33 µM in the test on A498 renal; 25.5 µM with A549 NSCLC; 27.1 µM in the test with ACHN renal; 13.1 µM in the test with CAKI-1 renal; 49.5 µM with COLO 205 colon; more than 100 µM with DU-145 prostate. The TGI in the test with HCT-116 colon is 28.8 µM; with HL-60(TB) leukemia, more than 100 µM; in the test with HOP-62 NSCLC it was 24.1 µM; with HS 578T breast it was 16.3 µM; in the test with K-562 leukemia it was more than 100 µM; with LOX IMVI melanoma, 35.2 µM. Moreover, the TGI is more than 100 µM in the test with MOLT-4 leukemia; 55.7 µM in the test with NCI-H226 lung; 27.2 µM in the test with NCI-H23 lung; 40.2 µM in the test on NCI-H522 lung; 34.6 µM with SF-268 CNS; 34.1 µM with SF-295 CNS. For the same compound, the TGI in the test with SR leukemia is more than 100 µM; with TK-10 renal it was 30.2 µM.

Consider `O=[N+]([O-])c1ccc2[nH]nc(OCc3ccccn3)c2c1`, for which the TGI with A498 renal, in the test on A549 NSCLC, with ACHN renal, in the test on CAKI-1 renal, in the test with COLO 205 colon and in the test on DU-145 prostate was more than 100 µM each time. The TGI with HCT-116 colon, in the test with HL-60(TB) leukemia, in the test on HOP-62 NSCLC, with HS 578T breast, in the test on K-562 leukemia and with LOX IMVI melanoma was more than 100 µM in each case. Besides, the TGI with MOLT-4 leukemia, in the test with NCI-H226 lung, with NCI-H23 lung, with NCI-H522 lung, with SF-268 CNS and in the test on SF-295 CNS was more than 100 µM each time. Moreover, the TGI in the test on SR leukemia and in the test with TK-10 renal was more than 100 µM throughout.

Consider `Cc1n[nH]c(=O)n1C1CCCC1`, for which the TGI in the test on A498 renal, in the test with A549 NSCLC, with ACHN renal, in the test with CAKI-1 renal, in the test on COLO 205 colon and in the test on DU-145 prostate was more than 100 µM each time. Moreover, the TGI with HCT-116 colon, in the test on HL-60(TB) leukemia, with HOP-62 NSCLC, in the test on HS 578T breast, with K-562 leukemia and in the test on LOX IMVI melanoma was more than 100 µM throughout. Moreover, the TGI in the test on MOLT-4 leukemia, in the test on NCI-H226 lung, in the test on NCI-H23 lung, in the test on NCI-H522 lung, with SF-268 CNS and with SF-295 CNS was more than 100 µM in each case. The TGI with SR leukemia and in the test with TK-10 renal was more than 100 µM throughout.

For `O=C(Nc1nc(C23CC4CC(CC(C4)C2)C3)cs1)c1c(O)c2ccccc2[nH]c1=O`, the TGI with A498 renal, in the test on A549 NSCLC, in the test on ACHN renal, in the test on CAKI-1 renal, in the test with COLO 205 colon and with DU-145 prostate was more than 100 µM throughout. Besides, the TGI in the test with HCT-116 colon, with HL-60(TB) leukemia, in the test on HOP-62 NSCLC, in the test with HS 578T breast, in the test on K-562 leukemia and in the test with LOX IMVI melanoma was more than 100 µM each time. Moreover, the TGI with MOLT-4 leukemia, in the test on NCI-H226 lung, in the test with NCI-H23 lung, in the test with NCI-H522 lung, in the test on SF-268 CNS and with SF-295 CNS was more than 100 µM in each case. Moreover, the TGI with SR leukemia and with TK-10 renal was more than 100 µM throughout.

For `CN(C)Cc1cc(N=Nc2cccc(Cl)c2)ccc1O`, the TGI in the test with A498 renal was 23.8 µM; with A549 NSCLC, 32.2 µM; with ACHN renal it was 13.5 µM; with CAKI-1 renal, 61.1 µM; with COLO 205 colon, 38.5 µM; in the test on DU-145 prostate it was 27.9 µM. The TGI with HCT-116 colon came out at 52 µM; with HL-60(TB) leukemia, 37.4 µM; in the test with HOP-62 NSCLC it was 22.9 µM; in the test on HS 578T breast, 29.4 µM; in the test on K-562 leukemia, 12.8 µM; in the test on LOX IMVI melanoma, 16.6 µM. The TGI in the test on MOLT-4 leukemia stood at 32.5 µM; in the test on NCI-H226 lung, 50.7 µM; with NCI-H23 lung, 57.9 µM; in the test with NCI-H522 lung, 23.9 µM; with SF-268 CNS, 40.3 µM; with SF-295 CNS, 27.8 µM. Further, the values for the TGI in the test with SR leukemia and with TK-10 renal were 54.5 µM and 23.2 µM, respectively.

As for `CC1=NOC2(C1)C(=O)Nc1ccccc12` (stereo not given), the TGI with A498 renal is 96.4 µM; in the test with A549 NSCLC it was more than 100 µM; in the test with ACHN renal, more than 100 µM; in the test on CAKI-1 renal, more than 100 µM; in the test on COLO 205 colon, more than 100 µM; with DU-145 prostate, more than 100 µM. In addition, the TGI in the test with HCT-116 colon, in the test with HL-60(TB) leukemia, in the test with HOP-62 NSCLC, in the test on HS 578T breast, with K-562 leukemia and in the test on LOX IMVI melanoma was more than 100 µM in each case. Moreover, the TGI with MOLT-4 leukemia, with NCI-H226 lung, in the test with NCI-H23 lung, in the test with NCI-H522 lung, with SF-268 CNS and with SF-295 CNS was more than 100 µM throughout. Moreover, the TGI in the test with SR leukemia and with TK-10 renal was more than 100 µM throughout.

Turning to `C=[N+](CNC(=O)CNC(=O)C(Cc1ccc([N+](=O)[O-])cc1)NC(=O)OC(C)(C)C)C(=O)CNC(=O)C(Cc1ccc([N+](=O)[O-])cc1)NC(=O)OC(C)(C)C` (stereo not given), the TGI in the test with A498 renal, in the test on A549 NSCLC, in the test on ACHN renal, with CAKI-1 renal, with COLO 205 colon and in the test on DU-145 prostate was more than 100 µM each time. Besides, the TGI is more than 100 µM in the test on HCT-116 colon; 46.5 µM with HL-60(TB) leukemia; more than 100 µM with HOP-62 NSCLC; more than 100 µM in the test with HS 578T breast; more than 100 µM with K-562 leukemia; 33.4 µM in the test on LOX IMVI melanoma. The TGI in the test on MOLT-4 leukemia is 67.4 µM; in the test on NCI-H226 lung, more than 100 µM; with NCI-H23 lung it was more than 100 µM; in the test with NCI-H522 lung it was 79.8 µM; in the test on SF-268 CNS it was 61.8 µM; in the test with SF-295 CNS it was more than 100 µM. Besides, the TGI is 80.6 µM in the test on SR leukemia and more than 100 µM in the test with TK-10 renal.

`c1ccc2c(c1)Nc1ccccc1[P+]21c2ccccc2Nc2ccccc21`: the TGI in the test on A498 renal came to 2.93 µM; with A549 NSCLC it was 3.29 µM; in the test with ACHN renal, 9.29 µM; in the test on CAKI-1 renal, 11.2 µM; in the test on COLO 205 colon it was 0.202 µM; in the test with DU-145 prostate, 3.46 µM. Besides, the TGI in the test with HCT-116 colon amounted to 1.05 µM; with HL-60(TB) leukemia it was 0.485 µM; in the test with HOP-62 NSCLC, 1.58 µM; with HS 578T breast, 1.36 µM; in the test on K-562 leukemia, 1.75 µM; in the test on LOX IMVI melanoma, 2.23 µM. The TGI is 1.11 µM in the test with MOLT-4 leukemia; 0.66 µM in the test on NCI-H226 lung; 0.83 µM in the test with NCI-H23 lung; 0.728 µM with NCI-H522 lung; 6.63 µM in the test with SF-268 CNS; 5.16 µM with SF-295 CNS. Moreover, the TGI stood at 1.4 µM with SR leukemia and 5.93 µM with TK-10 renal.

For the compound `COc1cc(/C=C2/SC(c3ccccc3)N(c3cccc(Cl)c3)C2=O)cc(OC)c1OC` (stereo not given), the TGI in the test with A498 renal, in the test with A549 NSCLC, with ACHN renal, in the test with CAKI-1 renal, in the test on COLO 205 colon and in the test with DU-145 prostate was more than 100 µM each time. Moreover, the TGI was 34.8 µM in the test with HCT-116 colon; more than 100 µM in the test on HL-60(TB) leukemia; more than 100 µM in the test with HOP-62 NSCLC; more than 100 µM in the test on HS 578T breast; more than 100 µM in the test on K-562 leukemia; 35.1 µM in the test with LOX IMVI melanoma. In addition, the TGI with MOLT-4 leukemia was more than 100 µM; with NCI-H226 lung, more than 100 µM; in the test on NCI-H23 lung, more than 100 µM; in the test on NCI-H522 lung, 26.2 µM; in the test with SF-268 CNS, more than 100 µM; in the test with SF-295 CNS it was more than 100 µM. Moreover, the TGI was 81.8 µM with SR leukemia and more than 100 µM in the test with TK-10 renal.

Source of the values: PubChem BioAssay (NCI).
